Laboratory results as given in patent publication US8404672B2, “Substituted heterocyclic compounds” (Bristol-Meyers Squibb Company, priority 2009, dated 2013).
Structures can show the parent of a compound that is named as a salt.

How the values were obtained:
human S1P1 = target: T1, human S1P1 (Homo sapiens, UniProt P21453); assay: S1P1 Binding Assay (33P-S1P radioligand competition, CHO cell membranes); conditions: membranes from CHO cells expressing human S1P1; 0.03 nM 33P-S1P; 60 min room temperature
T1 construct: expressed in transfected cells; host or cells: CHO cells
Experimental: Membranes were prepared from CHO cells expressing human S1P1. Cells were dissociated in buffer containing 20 mM HEPES, pH 7.5, 50 mM NaCl, 2 mM EDTA and Protease Inhibitor cocktail (Roche), and disrupted on ice using the Polytron homogenizer. The homogenate was centrifuged at 20,000 rpm (48,000 g) and the supernatant was discarded. The membrane pellets were resuspended in buffer containing 50 mM HEPES, pH 7.5, 100 mM NaCl, 1 mM MgCl2, 2 mM EDTA and stored in aliquots at −80° C. after protein concentration determination.
Membranes ([…]) and 0.03 nM final concentration of ^33P—S1P ligand (1 mCi/ml, American Radiolabeled Chemicals) were added to the compound plates. Binding was performed for 60 min at room temperature, terminated by collecting the membranes onto GF/B filter plates, and radioactivity was measured by TOPCOUNT®. The competition data of the test compounds over a range of concentrations was plotted as percentage inhibition of radioligand specific binding. The IC50 is defined as the concentration of competing ligand needed to reduce specific binding by 50%.
Compounds of the present invention and Comparative Compound A were tested in the S1P1 binding assay described hereinabove and the results rounded to two digits, shown in Table A were obtained. In some instances, the value is an average of multiple experiments where N is the number of experiments conducted that provided satisfactory dose response curves. When more than one batch of an example was tested, the value presented is from the batch which allowed a comparison of GTPγS S1P1 and GTPγS S1P3 in Method A (Data shown in Table B). Data was not averaged across different batches of an example compound.

[1] = target: T2, S1P1 (membranes from S1P1/CHO cells) (Homo sapiens, UniProt P21453); assay: Method A: Receptor [35S] GTPγS Binding Assay, S1P1; type: biochemical; conditions: for EC50: Method A, S1P1/CHO membranes; for GTPγS S1P3/S1P1 (Method A): ratio of GTPγS S1P3 EC50 to GTPγS S1P1 EC50, Method A
T2 construct: expressed in transfected cells; host or cells: S1P1/CHO cells
Experimental: (§1) Method A: Receptor [35S] GTPγS Binding Assays
(§2) Compounds were loaded in a 384 Falcon v-bottom plate (0.5 μl/well in a 3-fold dilution). Membranes prepared from S1P1/CHO cells or EDG3-Gal5-bla HEK293T cells were added to the compound plate (40 μl/well, final protein 3 μg/well) with MULTIDROP®. [^35S]GTP (1250 Ci/mmol, Perkin Elmer) was diluted in assay buffer: 20 mM HEPES, pH 7.5, 10 mM MgCl2, 150 mM NaCl, 1 mM EGTA, 1 mM DTT, 10 μM GDP, 0.1% fatty acid free BSA, and 10 μg/ml Saponin to 0.4 nM. 40 μl of the [^35S] GTP solution was added to the compound plate with a final concentration of 0.2 nM. The reaction was kept at room temperature for 45 min. At the end of incubation, all the mixtures in the compound plate were transferred to a 384 well FB filter plates via GPCR robot system. The filter plate was washed with water 4 times by using the modified manifold Embla plate washer and dried at 60° C. for 45 min. 30 μA of MicroScint 20 scintillation fluid was added to each well for counting at Packard TOPCOUNT®. EC50 is defined as the agonist concentration that corresponds to 50% of the Ymax (maximal response) obtained for each individual compound tested.
(§3) Compounds of the present invention and Comparative Compound A were tested in the Receptor [35S] GTPγS Binding Assays (Method A) and Receptor [35S] In some instances, the value is an average of multiple experiments where N is the number of experiments conducted that provided satisfactory dose response curves. When more than one batch of an example was tested, the value presented is from a batch which allowed a comparison of GTPγS S1P1 and GTPγS S1P3 in which the most number of experiments were performed. Preferably, the same batch was examined in Method A and Method B. Data was not averaged across different batches of an example compound.

[2] = target: T3, S1P3 (membranes from EDG3-Gal5-bla HEK293T cells) (Homo sapiens, UniProt Q99500); assay: Method A: Receptor [35S] GTPγS Binding Assay, S1P3; type: biochemical
T3 construct: expressed in transfected cells; host or cells: EDG3-Gal5-bla HEK293T cells
Experimental: as §1, §2, §3

[3] = target: T4, S1P1 (membranes from S1P1 transfected CHO cells) (Homo sapiens, UniProt P21453); assay: Method B: Receptor [35S] GTPγS SPA Binding Assay, S1P1; type: biochemical; conditions: for EC50: Method B SPA, S1P1 transfected CHO membranes; for GTPγS S1P3/S1P1 (Method B): ratio of GTPγS S1P3 EC50 to GTPγS S1P1 EC50, Method B
T4 construct: expressed in transfected cells; host or cells: CHO cells
Experimental: (§4) Method B: Receptor [35S] GTPγS SPA Binding Assays
(§5) Membranes prepared from S1P1 or S1P3 transfected CHO cells ([…]) were incubated in 96-well white plates (CORNING® 3693) with test compounds diluted in DMSO, in 50 μl of reaction mixture containing 7.5 μl WGA-PVT beads (20 mg/ml), and 5 μM GDP, 20 mM HEPES pH 7.4, 100 mM NaCl, 1 mM EDTA, 5 mM MgCl2, 10 μg/ml saponin, 0.1% BSA, and 1 μM leupeptin. The assay was initiated with the addition of […] of 0.2 nM [^35S]-GTPγS (1250 Ci/mmol; NEN) in assay buffer. After 90 min incubation at room temperature, spin the plate at 1000 rpm for 5 min. The bound radionuclides were measured at TOPCOUNT®, expressed as % response relative to S1P (1 μM) activation. Data was analyzed using the four parameter logistic equation in Excel. The four parameters in the equation, Y=A+((B−A)/(1+((EC50/X)^D))), are described as following: A is the Y value (agonist activity) at the bottom plateau; B is the Y value at the top plateau; EC50 is the X value (agonist concentration) when the response is halfway between bottom and top; D is Hill coefficient. Curves were not generated for compounds having Ymax values were below 50%.
as §3

[4] = target: T5, S1P3 (membranes from S1P3 transfected CHO cells) (Homo sapiens, UniProt Q99500); assay: Method B: Receptor [35S] GTPγS SPA Binding Assay, S1P3; type: biochemical
T5 construct: expressed in transfected cells; host or cells: CHO cells
Experimental: as §4, §5, §3

T3 sequence (Q99500 whole entry): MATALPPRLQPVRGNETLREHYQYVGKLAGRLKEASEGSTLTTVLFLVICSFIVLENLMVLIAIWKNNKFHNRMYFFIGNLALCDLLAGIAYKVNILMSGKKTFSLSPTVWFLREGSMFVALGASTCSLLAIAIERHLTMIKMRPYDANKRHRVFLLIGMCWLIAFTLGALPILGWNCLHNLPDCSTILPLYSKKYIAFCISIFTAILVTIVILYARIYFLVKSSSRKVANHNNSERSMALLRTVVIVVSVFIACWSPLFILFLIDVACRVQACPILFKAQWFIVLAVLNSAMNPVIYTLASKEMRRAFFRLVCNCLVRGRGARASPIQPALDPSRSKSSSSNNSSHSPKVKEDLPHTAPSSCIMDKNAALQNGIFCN
T5 sequence (Q99500 whole entry): as above
T1 sequence (P21453 whole entry): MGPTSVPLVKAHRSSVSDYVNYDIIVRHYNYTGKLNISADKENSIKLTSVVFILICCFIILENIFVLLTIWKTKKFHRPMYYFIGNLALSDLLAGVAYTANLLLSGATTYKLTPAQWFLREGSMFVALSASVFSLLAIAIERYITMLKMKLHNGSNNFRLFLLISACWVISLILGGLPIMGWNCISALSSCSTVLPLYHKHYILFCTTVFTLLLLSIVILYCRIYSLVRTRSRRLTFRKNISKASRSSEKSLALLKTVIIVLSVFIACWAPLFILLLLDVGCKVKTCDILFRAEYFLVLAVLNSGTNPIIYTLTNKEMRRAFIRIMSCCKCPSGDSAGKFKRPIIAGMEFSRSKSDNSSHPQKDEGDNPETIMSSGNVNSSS
T4 sequence (P21453 whole entry): as above
T2 sequence (P21453 whole entry): as above

SMILES | IC50 (human S1P1) | EC50 [1] | GTPγS S1P3/S1P1 (Method A) [1] | EC50 [2] | EC50 [3] | GTPγS S1P3/S1P1 (Method B) [3] | EC50 [4]
O=C(O)C1CN(Cc2ccc(-c3noc(-c4cc(-c5ccccc5)c(C(F)(F)F)s4)n3)cc2)C1 [Comp. A, 1-(4-(5-(4-Phenyl-5-(trifluoromethyl)thiophen-2-yl)-1,2,4-oxadiazol-3-yl)benzyl)azetidine-3-carboxylic acid, reference compound] | – | – | 1.2 | – | – | 78 | –
O=C(O)C1CN(Cc2ccc(-c3noc(-c4noc(-c5ccccn5)c4C(F)(F)F)n3)cc2)C1 [Example 2, 1-(4-(5-(5-(Pyridin-2-yl)-4-(trifluoromethyl)isoxazol-3-yl)-1,2,4-oxadiazol-3-yl)benzyl)azetidine-3-carboxylic acid] | 0.39 nM | 4.5 nM | – | – | 0.34 nM | 13,000 | 4400 nM
COC(=O)c1c(-c2ccccn2)noc1-c1nc(-c2ccc(CN3CC(C(=O)O)C3)cc2)no1 [Example 7, 1-(4-(5-(4-(Methoxycarbonyl)-3-(pyridin-2-yl)isoxazol-5-yl)-1,2,4-oxadiazol-3-yl)benzyl)azetidine-3-carboxylic acid] | 0.53 nM | 3.3 nM | 5,800 | 19000 nM | – | – | –
O=C(O)C1CN(Cc2ccc(-c3noc(-c4cc(-c5ccccn5)no4)n3)cc2)C1 [Example 8] | 6.5 nM | 450 nM | 5.1 | 2300 nM | 68 nM | – | –

More lines, in order of falling IC50 (human S1P1), values ahead:

IC50 (human S1P1) | EC50 [1] | GTPγS S1P3/S1P1 (Method A) [1] | EC50 [2] | EC50 [3] | GTPγS S1P3/S1P1 (Method B) [3] | EC50 [4] | SMILES
0.18 nM | 39 nM | 179 | 7000 nM | 1 nM | – | – | CC(C)c1c(-c2nc(-c3ccc(CN4CC(C(=O)O)C4)cc3)no2)noc1-c1ccccn1 [Example 4, 1-(4-(5-(4-Isopropyl-5-(pyridin-2-yl)isoxazol-3-yl)-1,2,4-oxadiazol-3-yl)benzyl)azetidine-3-carboxylate, 2,2,2-trifluoroacetic acid salt]
0.051 nM | 3.7 nM | 513 | 1900 nM | 0.61 nM | – | – | CCc1c(-c2nc(-c3ccc(CN4CC(C(=O)O)C4)cc3)no2)noc1-c1ccccn1 [Example 5, 1-(4-(5-(4-Ethyl-5-(pyridin-2-yl)isoxazol-3-yl)-1,2,4-oxadiazol-3-yl)benzyl)-azetidine-3-carboxylic acid, 2,2,2-trifluoroacetic acid salt]
0.021 nM | 0.82 nM | 2,600 | 2100 nM | 0.65 nM | 430 | 280 nM | CCCc1c(-c2nc(-c3ccc(CN4CC(C(=O)O)C4)cc3)no2)noc1-c1ccccn1 [Example 3, 1-(4-(5-(4-Propyl-5-(pyridin-2-yl)isoxazol-3-yl)-1,2,4-oxadiazol-3-yl)benzyl)azetidine-3-carboxylic acid, 2,2,2-trifluoroacetic acid salt]
0.019 nM | – | – | – | 0.082 nM | 5,200 | 430 nM | CCCc1c(-c2ccccn2)noc1-c1nc(-c2ccc(CN3CC(C(=O)O)C3)cc2)no1 [Example 6, 1-(4-(5-(4-Propyl-3-(pyridin-2-yl)isoxazol-5-yl)-1,2,4-oxadiazol-3-yl)benzyl)-azetidine-3-carboxylic acid, 2,2,2-trifluoroacetic acid salt]
